Data taken from ChEMBL document CHEMBL1201862, “PubChem BioAssay data set” (2004).
Active and inactive are the calls of the source.

Legend:
[1] = C. albicans growth with fluconazole, confirmation, fluorescence, retest (AID 2467); type: functional, cell-based
Exodeoxyribonuclease V = target: T1, Exodeoxyribonuclease V (Escherichia coli (strain K12), UniProt P04993+P07648+P08394); assay: E. coli RecBCD inhibitors, dose response, counter-screen for AddAB inhibitor project, absorbance, V66 E. coli, mutant T4 phage (AID 492957); type: functional, cell-based, Escherichia coli str. K-12 substr. MG1655
T1 sequence (P04993 whole entry): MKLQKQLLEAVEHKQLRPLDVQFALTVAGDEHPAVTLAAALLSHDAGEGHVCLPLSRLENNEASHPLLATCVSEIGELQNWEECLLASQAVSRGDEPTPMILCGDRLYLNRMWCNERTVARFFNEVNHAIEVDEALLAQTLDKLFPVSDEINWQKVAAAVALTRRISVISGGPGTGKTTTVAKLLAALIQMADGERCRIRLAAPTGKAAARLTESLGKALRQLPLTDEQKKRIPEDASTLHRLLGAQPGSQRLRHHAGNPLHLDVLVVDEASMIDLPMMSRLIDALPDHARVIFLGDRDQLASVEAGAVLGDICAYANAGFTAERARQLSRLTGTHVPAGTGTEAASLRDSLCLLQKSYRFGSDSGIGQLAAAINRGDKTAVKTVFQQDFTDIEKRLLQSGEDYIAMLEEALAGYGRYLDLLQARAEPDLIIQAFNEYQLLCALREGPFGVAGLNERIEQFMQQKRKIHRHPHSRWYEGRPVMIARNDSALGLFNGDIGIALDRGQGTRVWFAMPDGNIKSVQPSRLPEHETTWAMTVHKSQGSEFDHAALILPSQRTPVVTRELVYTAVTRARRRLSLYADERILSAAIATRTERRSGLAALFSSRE
T1 sequence (P07648 whole entry): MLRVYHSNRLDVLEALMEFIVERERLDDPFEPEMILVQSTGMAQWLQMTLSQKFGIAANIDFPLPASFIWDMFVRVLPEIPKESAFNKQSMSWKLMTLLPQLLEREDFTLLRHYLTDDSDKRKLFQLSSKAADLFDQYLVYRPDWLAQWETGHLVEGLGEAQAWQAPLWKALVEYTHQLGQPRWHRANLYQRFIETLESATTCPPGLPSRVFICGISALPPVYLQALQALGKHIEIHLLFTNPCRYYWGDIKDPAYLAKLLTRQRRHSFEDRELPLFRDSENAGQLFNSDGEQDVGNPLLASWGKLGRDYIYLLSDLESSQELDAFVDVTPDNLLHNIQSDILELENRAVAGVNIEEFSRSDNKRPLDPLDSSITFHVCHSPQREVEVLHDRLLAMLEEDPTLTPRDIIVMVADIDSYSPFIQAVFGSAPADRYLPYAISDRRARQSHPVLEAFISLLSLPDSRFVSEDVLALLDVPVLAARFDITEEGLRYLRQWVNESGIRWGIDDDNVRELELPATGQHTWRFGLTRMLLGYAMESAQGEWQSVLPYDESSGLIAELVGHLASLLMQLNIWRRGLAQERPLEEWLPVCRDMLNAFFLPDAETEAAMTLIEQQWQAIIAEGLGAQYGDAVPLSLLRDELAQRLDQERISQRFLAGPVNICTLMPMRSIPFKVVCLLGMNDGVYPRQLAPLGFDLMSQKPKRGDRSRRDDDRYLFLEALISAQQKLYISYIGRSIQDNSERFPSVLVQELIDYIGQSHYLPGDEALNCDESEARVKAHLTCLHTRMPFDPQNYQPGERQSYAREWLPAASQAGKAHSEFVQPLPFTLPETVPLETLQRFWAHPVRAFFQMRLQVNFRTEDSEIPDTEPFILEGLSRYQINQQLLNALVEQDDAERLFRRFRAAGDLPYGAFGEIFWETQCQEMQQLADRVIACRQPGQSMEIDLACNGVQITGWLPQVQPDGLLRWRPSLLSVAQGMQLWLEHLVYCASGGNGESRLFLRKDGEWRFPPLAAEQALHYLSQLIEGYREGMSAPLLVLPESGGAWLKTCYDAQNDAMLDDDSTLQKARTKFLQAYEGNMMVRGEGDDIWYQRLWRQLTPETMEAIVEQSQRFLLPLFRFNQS
T1 sequence (P08394 whole entry): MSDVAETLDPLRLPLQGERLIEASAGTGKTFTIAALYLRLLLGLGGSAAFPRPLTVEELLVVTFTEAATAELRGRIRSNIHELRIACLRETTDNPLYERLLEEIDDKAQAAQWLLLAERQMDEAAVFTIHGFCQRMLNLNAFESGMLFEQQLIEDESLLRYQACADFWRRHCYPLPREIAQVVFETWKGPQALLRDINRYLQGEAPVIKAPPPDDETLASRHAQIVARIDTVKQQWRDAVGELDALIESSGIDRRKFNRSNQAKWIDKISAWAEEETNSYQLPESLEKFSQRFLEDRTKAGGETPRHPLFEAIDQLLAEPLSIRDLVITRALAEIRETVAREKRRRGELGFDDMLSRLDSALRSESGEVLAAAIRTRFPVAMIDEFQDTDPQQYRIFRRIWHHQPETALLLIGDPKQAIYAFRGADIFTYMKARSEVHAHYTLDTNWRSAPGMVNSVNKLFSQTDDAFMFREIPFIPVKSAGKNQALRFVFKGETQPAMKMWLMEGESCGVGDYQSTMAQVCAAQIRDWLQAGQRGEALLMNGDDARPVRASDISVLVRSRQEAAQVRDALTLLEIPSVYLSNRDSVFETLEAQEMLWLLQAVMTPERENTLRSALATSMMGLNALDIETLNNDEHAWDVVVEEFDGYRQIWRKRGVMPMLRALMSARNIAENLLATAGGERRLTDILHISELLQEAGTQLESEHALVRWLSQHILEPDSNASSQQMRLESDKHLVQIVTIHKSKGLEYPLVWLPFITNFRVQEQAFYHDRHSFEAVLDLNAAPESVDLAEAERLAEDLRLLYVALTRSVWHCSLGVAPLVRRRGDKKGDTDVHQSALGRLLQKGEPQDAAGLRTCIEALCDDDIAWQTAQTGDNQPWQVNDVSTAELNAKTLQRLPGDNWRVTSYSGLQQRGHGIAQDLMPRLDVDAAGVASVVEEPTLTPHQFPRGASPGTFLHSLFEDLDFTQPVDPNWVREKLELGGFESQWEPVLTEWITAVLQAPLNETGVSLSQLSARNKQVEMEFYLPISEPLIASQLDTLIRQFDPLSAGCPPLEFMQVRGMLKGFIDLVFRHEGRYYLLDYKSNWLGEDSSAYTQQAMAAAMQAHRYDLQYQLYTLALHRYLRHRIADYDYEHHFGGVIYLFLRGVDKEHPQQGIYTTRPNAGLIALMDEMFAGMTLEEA

[2] = target: Serine/threonine-protein phosphatase PP1-alpha catalytic subunit (Homo sapiens, UniProt P62136); assay: PP1 phosphatase inhibitors, dose response, biochemical, fluorescence (AID 2394)
Chain of Serine/threonine-protein phosphatase PP1-alpha catalytic subunit (P62136 whole entry): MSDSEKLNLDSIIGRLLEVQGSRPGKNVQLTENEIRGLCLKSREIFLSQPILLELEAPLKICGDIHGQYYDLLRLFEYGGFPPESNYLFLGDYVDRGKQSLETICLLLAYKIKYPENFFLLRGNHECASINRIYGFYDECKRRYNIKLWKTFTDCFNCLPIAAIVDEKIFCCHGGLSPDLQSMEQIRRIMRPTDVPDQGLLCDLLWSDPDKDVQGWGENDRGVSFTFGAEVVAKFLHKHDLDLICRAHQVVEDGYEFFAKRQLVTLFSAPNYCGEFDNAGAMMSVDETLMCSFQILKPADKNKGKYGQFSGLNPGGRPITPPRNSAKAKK

Row | IC50 [2] | SMILES | EC50 [1] | IC50 (Exodeoxyribonuclease V)
1 |  | Cc1ccc(C)c(S(=O)(=O)N2CCN(Cc3ccc(O)c4ncccc34)CC2)c1 | 1.14 µM (active) | > 119 µM (inactive)
2 | > 67 µM (not active) | Oc1ccc(/C=N\Nc2cc(N3CCOCC3)nc(N3CCOCC3)n2)c(O)c1 |  | 
